{"source": "patent US8192734B2", "about": "“Compositions and methods for bone strengthening” (Cornell University, priority 2007, dated 2012)", "key": {"[1]": {"test_system": "mice", "details": "cited from earlier work"}, "[2]": {"test_system": "rats", "details": "cited from earlier work"}, "[3]": {"test_system": "pigs fed P-adequate corn-soybean meal basal diet", "experiment": "Expt 2: BMC, BMD and bone area by dual energy X-ray absorptiometry", "assay_type": "in vivo, pig", "details": "main effect, phytase 2,000 U/kg or Sr 50 mg/kg", "procedure": "In Experiment 2, bone mineral content (BMC, g) and bone mineral density (BMD, g/cm^2) of 3rd and 4th metatarsals from the left foot and femur from the left leg of each pig were measured. After being thawed to room temperature, entire bones were placed on a rice bag (to remove background effects) and scanned by dual energy X-ray absorptiometry using the GE Lunar Prodigy instrument (GE Lunar, Prodigy, Madison Wis.) in the small animal scan mode. Values of BMC and BMD were predicted by analysis of scans using Prodigy software (version 10.10.038)."}, "[4]": {"test_system": "pigs fed P-adequate corn-soybean meal basal diet", "experiment": "Expt 2: femur geometrical and strength properties", "assay_type": "in vivo, pig", "details": "phytase 2000 U/kg and/or Sr 50 mg/kg, n=6", "procedure": "A three-point bending test was conducted on the dissected bones to generate load-deformation curves with an Instron Model 5566 (Norwood, Mass.). Mechanical properties of bones were calculated using formula as previously described^(29). Bone cross sections were cut at the mid-point of loading and used to determine area moment of inertia. Cross sections were submersed for 5 min in a 0.4 mol/L sodium hypochlorite solution to remove periosteum and marrow tissue, and then embedded in blue clay (Play-Doh, Hasbro, Pawtucket, R.I.) to prevent depth-of-field distortions and to enhance contrasts. The embedded sections were scanned with a flat-bed scanner (Epson Perfection Model 3490, Long Beach, Calif.) and analyzed using Image J software (30) to measure the x-y coordinates of bone pixels."}, "[5]": {"test_system": "pigs fed P-adequate corn-soybean meal basal diet", "experiment": "Expt 2: metatarsal and femur breaking strength, three-point bending test", "assay_type": "in vivo, pig", "details": "main effect, phytase 2,000 U/kg or Sr 50 mg/kg", "procedure": "Third and 4th metatarsals in both experiments and femur (right leg) in Experiment 2 were prepared by manually removing surrounding skin, muscle and other tissues. Bones were stored in closed plastic bags at 4° C. until strength analysis. Maximal breaking load was measured using an Instron 4500 Machine (Canton, Mass.) at room temperature (23° C.) by subjecting each bone to a three-point bending test^(28). During mechanical tests, force was applied to the center of the bone held by supports 2.0 cm apart for metatarsals and 3.3 cm apart for femur. The crosshead speed was set at 50 mm/min and the sample rate was 10 points/s. Final strength was determined from load-displacement curves indicating the maximum loads. The metatarsal breaking strength was expressed as the mean strength of four bones from both left and right feet of pigs in Experiment 1, and as the mean of the two bones from the right foot of pigs in Experiment 2."}, "[6]": {"test_system": "pigs fed P-adequate corn-soybean meal basal diet", "experiment": "Expt 2: metatarsal and femur mineral concentrations (ICP)", "assay_type": "in vivo, pig", "procedure": "After the breaking strength analysis, samples (˜100 to 200 mg) of metatarsals in both experiments and femur in Experiment 2 from the right legs were used for mineral analysis. Cortical bones were isolated after removing attached connective tissue using a stainless steel scalpel and collecting individual shards using needle-nosed pliers with plastic-covered clamps. […] Concentrations of individual elements in the dried bone samples were measured using inductively coupled argon plasma spectrophotometer (ICAP 61E Trace Analyzer, Thermo Jarell Ash corporation, Franklin, Mass.)(31). Samples were digested in a mixture of HNO3 and HClO4 (9:1, vol/vol), and then diluted in 5% HNO3 before analysis."}, "[7]": {"details": "main effect of Sr 50 mg/kg, P<0.0001"}, "[8]": {"details": "phytase 2000 U/kg and/or Sr 50 mg/kg, n=6"}}}
{"compound": "[Cl-].[Cl-].[Sr+2]", "note": "[strontium chloride]", "values": [{"measurement": "LD50", "setting": "[1]", "value": 147.6, "unit": "mg/kg body weight"}]}
{"compound": "[Br-].[Br-].[Sr+2]", "note": "[strontium bromide]", "values": [{"measurement": "LD50", "setting": "[2]", "value": 1, "unit": "g/kg body weight"}]}
{"compound": "strontium acetate", "values": [{"measurement": "LD50", "setting": "[2]", "value": 1.16, "unit": "mmol/kg"}]}
{"compound": "[I-].[I-].[Sr+2]", "note": "[strontium iodide]", "values": [{"measurement": "LD50", "setting": "[2]", "value": 800, "unit": "mg/kg body weight"}]}
{"compound": "O=C([O-])[O-].[Sr+2]", "note": "[Sr, SrCO3]", "values": [{"measurement": "elevation of BMD of the two bones (metatarsal, femur)", "setting": "[3]", "value": 6, "unit": "%"}, {"measurement": "enhancement of BMC in both bones (metatarsal, femur)", "setting": "[3]", "value": "6 to 8", "unit": "%"}, {"measurement": "femur Cross-sectional area", "setting": "[4]", "value": 151, "unit": "mm^2"}, {"measurement": "femur Cross-sectional radius", "setting": "[4]", "value": 9.0, "unit": "mm"}, {"measurement": "femur Maximum bending moment", "setting": "[4]", "value": 2286, "unit": "kg × mm"}, {"measurement": "femur Maximum stress", "setting": "[4]", "value": 4.3, "unit": "kg/mm^2"}, {"measurement": "femur Modulus of elasticity", "setting": "[4]", "value": 50, "unit": "kg/mm^2"}, {"measurement": "femur Moment of inertia", "setting": "[4]", "value": 4891, "unit": "mm^4"}, {"measurement": "femur Strain", "setting": "[4]", "value": 0.05}, {"measurement": "femur Yield bending moment", "setting": "[4]", "value": 1384, "unit": "kg-mm"}, {"measurement": "femur Yield stress", "setting": "[4]", "value": 2.6, "unit": "kg/mm^2"}, {"measurement": "improvement in breaking strength of femur", "setting": "[5]", "value": 10, "unit": "%"}, {"measurement": "improvement in breaking strength of metatarsals", "setting": "[5]", "value": 11, "unit": "%"}, {"measurement": "elevation of metatarsal concentration of Sr", "setting": "[6]; [7]", "value": 4, "unit": "fold"}, {"measurement": "enhancement of femur concentration of Sr", "setting": "[6]; [7]", "value": 3.9, "unit": "fold"}, {"measurement": "femur Cr concentration", "setting": "[6]; [8]", "value": 7.0, "unit": "mg/kg"}, {"measurement": "femur Fe concentration", "setting": "[6]; [8]", "value": 6.9, "unit": "mg/kg"}, {"measurement": "femur Mg concentration", "setting": "[6]; [8]", "value": 5.4, "unit": "g/kg"}, {"measurement": "femur Mn concentration", "setting": "[6]; [8]", "value": 0.6, "unit": "mg/kg"}, {"measurement": "femur Na concentration", "setting": "[6]; [8]", "value": 8.0, "unit": "g/kg"}, {"measurement": "femur P concentration", "setting": "[6]; [8]", "value": 176.3, "unit": "g/kg"}, {"measurement": "femur S concentration", "setting": "[6]; [8]", "value": 1.1, "unit": "g/kg"}, {"measurement": "femur Sr concentration", "setting": "[6]; [8]", "value": 418.9, "unit": "mg/kg"}, {"measurement": "femur Zn concentration", "setting": "[6]; [8]", "value": 209.6, "unit": "mg/kg"}, {"measurement": "metatarsal Cr concentration", "setting": "[6]; [8]", "value": 26.6, "unit": "mg/kg"}, {"measurement": "metatarsal Fe concentration", "setting": "[6]; [8]", "value": 23.5, "unit": "mg/kg"}, {"measurement": "metatarsal Mg concentration", "setting": "[6]; [8]", "value": 3.5, "unit": "g/kg"}, {"measurement": "metatarsal Mn concentration", "setting": "[6]; [8]", "value": 2.8, "unit": "mg/kg"}, {"measurement": "metatarsal Na concentration", "setting": "[6]; [8]", "value": 6.8, "unit": "g/kg"}, {"measurement": "metatarsal P concentration", "setting": "[6]; [8]", "value": 88.1, "unit": "g/kg"}, {"measurement": "metatarsal S concentration", "setting": "[6]; [8]", "value": 1.0, "unit": "g/kg"}, {"measurement": "metatarsal Sr concentration", "setting": "[6]; [8]", "value": 330.6, "unit": "mg/kg"}, {"measurement": "metatarsal Zn concentration", "setting": "[6]; [8]", "value": 146.8, "unit": "mg/kg"}]}
